Data as given in ChEMBL document CHEMBL1909046, “DrugMatrix in vitro pharmacology data”.

Tests used:
[1] = target: Estrogen receptor beta (Homo sapiens, UniProt Q92731); conditions: sf9; further: in other assays of this panel Not Active means under 50% inhibition at 10 µM
[2] = target: Receptor tyrosine-protein kinase erbB-2 (Homo sapiens, UniProt P04626); test: biochemical; format: cell-based, Insect cells; conditions: insect cells;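 further: inhibition of HER2 kinase enzyme activity, measured with Poly(Glu:Tyr) as the phosphorylation substrate; in other assays of this panel Not Active means under 50% inhibition at 10 µM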
[3] = target: Epidermal growth factor receptor (Homo sapiens, UniProt P00533); test: DRUGMATRIX: Protein Tyrosine Kinase, EGF Receptor enzyme inhibition (substrate: Poly(Glu:Tyr)); format: cell-based, Insect cells; conditions: insect cells; Not Active = under 50% inhibition at 10 µM
[4] = DRUGMATRIX: GABAA, Flunitrazepam, Central radioligand binding (ligand: [3H] Flunitrazepam); format: cell membranes, Rattus norvegicus, Wistar, Brain, Membrane; conditions: Not Active = under 50% inhibition at 10 µM
[5] = target: Platelet-activating factor receptor (Homo sapiens, UniProt P25105); format: tissue-based; further: in other assays of this panel Not Active means under 50% inhibition at 10 µM
[6] = target: Insulin receptor (Rattus norvegicus, UniProt P15127); format: cell membranes, Wistar, Liver, Membrane; further: in other assays of this panel Not Active means under 50% inhibition at 10 µM
[7] = target: T1, C-X-C chemokine receptor type 2 (Homo sapiens, UniProt P25025); format: cell membranes, Membrane; conditions: cho-k1; further: in other assays of this panel Not Active means under 50% inhibition at 10 µM
T1 sequence (P25025 whole entry): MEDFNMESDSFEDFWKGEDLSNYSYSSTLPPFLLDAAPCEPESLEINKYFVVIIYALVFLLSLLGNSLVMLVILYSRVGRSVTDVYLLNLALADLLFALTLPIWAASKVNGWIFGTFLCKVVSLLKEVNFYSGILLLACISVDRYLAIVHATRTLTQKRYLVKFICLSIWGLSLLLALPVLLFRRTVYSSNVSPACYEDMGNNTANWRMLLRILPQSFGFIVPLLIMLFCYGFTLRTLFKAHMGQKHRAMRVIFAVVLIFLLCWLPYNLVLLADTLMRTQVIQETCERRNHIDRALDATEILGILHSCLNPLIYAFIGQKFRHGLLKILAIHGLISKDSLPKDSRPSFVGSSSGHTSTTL

[8] = target: T2, Nitric oxide synthase, inducible (Mus musculus, UniProt P29477); set-up: species or system Escherichia coli
T2 sequence (P29477 whole entry): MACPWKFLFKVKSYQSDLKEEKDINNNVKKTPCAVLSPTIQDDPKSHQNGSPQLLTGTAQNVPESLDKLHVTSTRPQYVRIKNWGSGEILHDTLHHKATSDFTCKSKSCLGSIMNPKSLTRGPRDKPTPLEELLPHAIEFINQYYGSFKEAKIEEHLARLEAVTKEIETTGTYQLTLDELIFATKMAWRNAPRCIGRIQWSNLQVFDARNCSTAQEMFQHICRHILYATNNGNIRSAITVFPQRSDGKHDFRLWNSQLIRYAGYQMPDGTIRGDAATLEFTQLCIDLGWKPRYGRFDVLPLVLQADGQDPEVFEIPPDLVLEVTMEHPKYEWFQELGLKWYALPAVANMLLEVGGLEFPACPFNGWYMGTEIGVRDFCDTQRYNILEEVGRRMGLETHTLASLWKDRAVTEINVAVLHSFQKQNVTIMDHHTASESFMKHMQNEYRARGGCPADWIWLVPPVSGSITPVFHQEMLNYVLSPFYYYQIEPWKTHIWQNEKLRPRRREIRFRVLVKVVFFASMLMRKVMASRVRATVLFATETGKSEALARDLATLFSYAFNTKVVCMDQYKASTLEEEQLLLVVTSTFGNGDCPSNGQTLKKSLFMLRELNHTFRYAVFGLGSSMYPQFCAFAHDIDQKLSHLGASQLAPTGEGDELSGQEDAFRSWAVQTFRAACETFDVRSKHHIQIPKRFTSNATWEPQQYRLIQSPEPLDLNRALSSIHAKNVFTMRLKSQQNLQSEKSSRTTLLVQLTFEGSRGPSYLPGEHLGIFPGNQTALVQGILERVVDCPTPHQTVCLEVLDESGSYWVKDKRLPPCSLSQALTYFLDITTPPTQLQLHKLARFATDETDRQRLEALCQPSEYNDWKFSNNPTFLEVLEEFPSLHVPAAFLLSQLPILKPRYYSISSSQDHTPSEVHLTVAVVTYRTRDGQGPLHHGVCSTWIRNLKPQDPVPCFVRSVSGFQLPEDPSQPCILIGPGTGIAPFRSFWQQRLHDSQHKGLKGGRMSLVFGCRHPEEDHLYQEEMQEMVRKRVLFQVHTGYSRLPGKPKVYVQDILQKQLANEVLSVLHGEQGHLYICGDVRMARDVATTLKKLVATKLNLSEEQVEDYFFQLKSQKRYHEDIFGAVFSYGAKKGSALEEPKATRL

Epidermal growth factor receptor, sequence (P00533 whole entry): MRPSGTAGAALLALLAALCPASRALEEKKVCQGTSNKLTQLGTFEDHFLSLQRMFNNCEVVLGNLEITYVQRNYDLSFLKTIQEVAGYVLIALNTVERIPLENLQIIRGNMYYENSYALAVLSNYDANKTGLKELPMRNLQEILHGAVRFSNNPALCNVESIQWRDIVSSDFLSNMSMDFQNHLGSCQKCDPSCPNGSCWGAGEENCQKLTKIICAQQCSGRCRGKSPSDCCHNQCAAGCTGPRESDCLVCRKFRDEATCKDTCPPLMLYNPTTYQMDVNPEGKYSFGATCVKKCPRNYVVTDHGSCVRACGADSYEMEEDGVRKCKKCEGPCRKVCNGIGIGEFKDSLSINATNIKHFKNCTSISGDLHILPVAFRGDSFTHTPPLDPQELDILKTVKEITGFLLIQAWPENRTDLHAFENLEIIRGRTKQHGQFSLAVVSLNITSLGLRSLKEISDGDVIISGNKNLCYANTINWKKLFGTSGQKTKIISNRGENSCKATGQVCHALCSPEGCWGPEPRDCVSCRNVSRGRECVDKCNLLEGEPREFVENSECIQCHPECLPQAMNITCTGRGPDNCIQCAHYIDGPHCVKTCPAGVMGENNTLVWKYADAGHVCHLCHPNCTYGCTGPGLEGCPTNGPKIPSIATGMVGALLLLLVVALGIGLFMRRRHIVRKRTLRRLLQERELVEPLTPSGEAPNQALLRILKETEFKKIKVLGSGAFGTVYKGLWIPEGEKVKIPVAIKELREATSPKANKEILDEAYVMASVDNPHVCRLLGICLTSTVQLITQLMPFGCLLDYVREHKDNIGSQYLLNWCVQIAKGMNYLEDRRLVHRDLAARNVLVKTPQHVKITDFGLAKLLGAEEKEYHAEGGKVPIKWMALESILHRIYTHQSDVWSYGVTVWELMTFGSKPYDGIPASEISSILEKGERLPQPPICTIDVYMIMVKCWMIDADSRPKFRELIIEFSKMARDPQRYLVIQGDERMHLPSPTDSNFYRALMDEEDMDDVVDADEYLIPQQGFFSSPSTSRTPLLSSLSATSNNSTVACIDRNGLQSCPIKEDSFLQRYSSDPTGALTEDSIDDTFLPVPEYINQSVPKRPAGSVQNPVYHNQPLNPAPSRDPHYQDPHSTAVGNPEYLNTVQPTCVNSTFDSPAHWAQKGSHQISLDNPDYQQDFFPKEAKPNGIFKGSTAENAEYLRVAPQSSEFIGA
Estrogen receptor beta, sequence (Q92731 whole entry): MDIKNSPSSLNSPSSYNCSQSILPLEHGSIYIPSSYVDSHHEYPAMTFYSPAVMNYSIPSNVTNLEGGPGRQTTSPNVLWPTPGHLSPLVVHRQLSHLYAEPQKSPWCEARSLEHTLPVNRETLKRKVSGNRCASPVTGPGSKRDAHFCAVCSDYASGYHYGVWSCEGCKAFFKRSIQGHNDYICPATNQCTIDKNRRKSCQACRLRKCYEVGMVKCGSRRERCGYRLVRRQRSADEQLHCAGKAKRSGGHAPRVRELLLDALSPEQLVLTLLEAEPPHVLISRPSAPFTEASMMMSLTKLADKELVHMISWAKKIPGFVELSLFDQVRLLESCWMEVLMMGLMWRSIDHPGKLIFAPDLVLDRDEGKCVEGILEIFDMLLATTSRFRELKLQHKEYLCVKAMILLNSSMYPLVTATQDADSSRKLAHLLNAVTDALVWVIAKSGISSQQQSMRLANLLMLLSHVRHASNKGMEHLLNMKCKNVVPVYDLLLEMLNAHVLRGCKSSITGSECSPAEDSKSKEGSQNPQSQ
Platelet-activating factor receptor, sequence (P25105 whole entry): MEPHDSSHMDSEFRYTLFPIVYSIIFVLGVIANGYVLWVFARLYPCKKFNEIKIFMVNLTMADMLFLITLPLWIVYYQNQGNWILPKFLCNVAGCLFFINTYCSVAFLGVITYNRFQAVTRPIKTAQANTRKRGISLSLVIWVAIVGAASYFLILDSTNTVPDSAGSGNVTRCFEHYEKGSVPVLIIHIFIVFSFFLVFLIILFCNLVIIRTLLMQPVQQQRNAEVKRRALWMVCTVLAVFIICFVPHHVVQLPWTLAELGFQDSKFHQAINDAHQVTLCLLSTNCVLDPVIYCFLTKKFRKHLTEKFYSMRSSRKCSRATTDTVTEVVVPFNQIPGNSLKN
Insulin receptor, sequence (P15127 27-759 limits assumed): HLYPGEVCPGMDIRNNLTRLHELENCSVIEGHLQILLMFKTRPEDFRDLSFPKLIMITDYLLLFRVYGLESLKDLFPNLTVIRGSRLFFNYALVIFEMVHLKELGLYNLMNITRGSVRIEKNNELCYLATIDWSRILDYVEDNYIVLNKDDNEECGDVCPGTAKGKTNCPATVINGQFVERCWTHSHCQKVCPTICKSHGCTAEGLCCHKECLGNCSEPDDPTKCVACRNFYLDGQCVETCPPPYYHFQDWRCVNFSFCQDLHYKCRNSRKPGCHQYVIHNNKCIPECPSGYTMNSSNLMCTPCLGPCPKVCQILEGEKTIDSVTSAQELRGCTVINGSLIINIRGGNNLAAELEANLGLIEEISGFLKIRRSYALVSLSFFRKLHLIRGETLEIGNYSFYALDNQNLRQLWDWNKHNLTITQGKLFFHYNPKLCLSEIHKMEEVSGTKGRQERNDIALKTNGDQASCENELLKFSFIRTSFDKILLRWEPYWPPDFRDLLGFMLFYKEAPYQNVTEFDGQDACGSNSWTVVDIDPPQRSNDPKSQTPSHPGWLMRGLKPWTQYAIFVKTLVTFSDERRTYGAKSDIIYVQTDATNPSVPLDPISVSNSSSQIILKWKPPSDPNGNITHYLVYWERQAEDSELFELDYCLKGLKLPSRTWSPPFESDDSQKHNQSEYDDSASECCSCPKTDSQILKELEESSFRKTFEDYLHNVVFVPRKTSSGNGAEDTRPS
Insulin receptor, sequence (P15127 764-1383 limits assumed): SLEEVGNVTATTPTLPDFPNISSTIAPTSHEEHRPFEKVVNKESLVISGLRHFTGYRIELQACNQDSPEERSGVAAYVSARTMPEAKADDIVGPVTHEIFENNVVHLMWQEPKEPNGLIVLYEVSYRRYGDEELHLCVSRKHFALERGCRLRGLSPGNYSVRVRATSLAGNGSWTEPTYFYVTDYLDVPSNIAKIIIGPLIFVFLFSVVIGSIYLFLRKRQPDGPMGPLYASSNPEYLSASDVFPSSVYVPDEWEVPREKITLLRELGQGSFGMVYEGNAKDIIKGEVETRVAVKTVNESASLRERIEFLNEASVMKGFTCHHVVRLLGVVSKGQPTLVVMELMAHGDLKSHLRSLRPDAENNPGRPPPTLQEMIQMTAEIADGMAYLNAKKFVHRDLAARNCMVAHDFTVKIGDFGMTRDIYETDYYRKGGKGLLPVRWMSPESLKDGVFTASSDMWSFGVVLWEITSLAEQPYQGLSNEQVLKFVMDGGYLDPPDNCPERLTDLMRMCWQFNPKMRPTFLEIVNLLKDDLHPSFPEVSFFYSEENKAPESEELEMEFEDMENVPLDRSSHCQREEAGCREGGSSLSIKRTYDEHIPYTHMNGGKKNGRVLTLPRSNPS
Receptor tyrosine-protein kinase erbB-2, sequence (P04626 whole entry): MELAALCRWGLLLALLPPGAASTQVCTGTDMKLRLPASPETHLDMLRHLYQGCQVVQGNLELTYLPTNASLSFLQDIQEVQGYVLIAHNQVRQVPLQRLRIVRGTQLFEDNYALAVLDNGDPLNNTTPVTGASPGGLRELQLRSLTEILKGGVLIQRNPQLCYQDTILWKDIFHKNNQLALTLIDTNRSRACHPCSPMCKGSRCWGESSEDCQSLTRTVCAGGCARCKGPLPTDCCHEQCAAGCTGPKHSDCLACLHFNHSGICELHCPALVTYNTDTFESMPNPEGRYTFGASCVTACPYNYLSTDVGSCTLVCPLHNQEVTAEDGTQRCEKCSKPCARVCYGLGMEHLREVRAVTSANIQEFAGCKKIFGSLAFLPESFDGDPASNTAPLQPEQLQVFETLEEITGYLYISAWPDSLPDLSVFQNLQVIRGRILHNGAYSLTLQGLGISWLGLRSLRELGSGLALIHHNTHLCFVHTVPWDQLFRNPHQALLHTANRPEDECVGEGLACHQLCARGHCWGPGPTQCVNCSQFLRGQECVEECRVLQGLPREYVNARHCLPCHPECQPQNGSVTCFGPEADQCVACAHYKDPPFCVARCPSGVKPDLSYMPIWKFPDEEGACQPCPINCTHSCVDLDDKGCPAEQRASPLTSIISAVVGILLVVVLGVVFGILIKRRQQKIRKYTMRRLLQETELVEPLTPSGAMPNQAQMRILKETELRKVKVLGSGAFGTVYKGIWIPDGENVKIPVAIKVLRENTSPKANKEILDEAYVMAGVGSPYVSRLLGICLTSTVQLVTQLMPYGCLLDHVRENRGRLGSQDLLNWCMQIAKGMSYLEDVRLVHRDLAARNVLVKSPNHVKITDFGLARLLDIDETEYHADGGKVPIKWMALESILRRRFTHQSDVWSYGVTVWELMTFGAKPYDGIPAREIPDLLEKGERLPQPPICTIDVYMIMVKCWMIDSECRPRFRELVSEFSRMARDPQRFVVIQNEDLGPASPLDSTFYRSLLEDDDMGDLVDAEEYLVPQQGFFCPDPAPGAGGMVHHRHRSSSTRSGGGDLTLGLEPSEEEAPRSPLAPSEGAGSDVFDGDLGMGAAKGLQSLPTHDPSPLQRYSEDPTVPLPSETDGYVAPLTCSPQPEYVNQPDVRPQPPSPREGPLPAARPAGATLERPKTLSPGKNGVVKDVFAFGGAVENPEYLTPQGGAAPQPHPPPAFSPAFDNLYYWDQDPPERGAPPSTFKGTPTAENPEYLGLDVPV

Oc1ccc(OCc2ccccc2)cc1 [MONOBENZONE]
Not Active: IC50 [1] | IC50 [2] | IC50 [3] | IC50 [4] | Ki [4] | IC50 [5] | IC50 [6] | IC50 [7] | IC50 [8]

CC(C)(Oc1ccc(C2CCCc3ccccc32)cc1)C(=O)O (stereo not drawn) [NAFENOPIN]
Not Active: IC50 [1] | IC50 [2] | IC50 [3] | IC50 [4] | Ki [4] | IC50 [5] | IC50 [6] | IC50 [7] | IC50 [8]

CC(C)[C@H]1CC[C@H](C(=O)N[C@H](Cc2ccccc2)C(=O)O)CC1 [NATEGLINIDE]
Not Active: IC50 [1] | IC50 [2] | IC50 [3] | IC50 [4] | Ki [4] | IC50 [5] | IC50 [6] | IC50 [7] | IC50 [8]

CCN[C@@H]1C[C@H](N)[C@@H](O[C@H]2OC(CN)=CC[C@H]2N)[C@H](O)[C@H]1O[C@H]1OC[C@](C)(O)[C@H](NC)[C@H]1O [NETILMICIN]
Not Active: IC50 [1] | IC50 [2] | IC50 [3] | IC50 [4] | Ki [4] | IC50 [5] | IC50 [6] | IC50 [7] | IC50 [8]

CCOC(=O)C1=C(C)NC(C)=C(C(=O)OC)C1c1cccc([N+](=O)[O-])c1 (stereo not drawn) [NITRENDIPINE]
Not Active: IC50 [1] | IC50 [2] | IC50 [3] | IC50 [4] | Ki [4] | IC50 [5] | IC50 [6] | IC50 [7] | IC50 [8]

C#C[C@]1(OC(C)=O)CC[C@H]2[C@@H]3CCC4=CC(=O)CC[C@@H]4[C@H]3CC[C@@]21C [NORETHINDRONE ACETATE]
Not Active: IC50 [1] | IC50 [2] | IC50 [3] | IC50 [4] | Ki [4] | IC50 [5] | IC50 [6] | IC50 [7] | IC50 [8]

COc1ccc2[nH]c([S+]([O-])Cc3ncc(C)c(OC)c3C)nc2c1 (stereo not drawn) [OMEPRAZOLE]
Not Active: IC50 [1] | IC50 [2] | IC50 [3] | IC50 [4] | Ki [4] | IC50 [5] | IC50 [6] | IC50 [7] | IC50 [8]

Cc1nccn1CC1CCc2c(c3ccccc3n2C)C1=O (stereo not drawn) [ONDANSETRON]
Not Active: IC50 [1] | IC50 [2] | IC50 [3] | IC50 [4] | Ki [4] | IC50 [5] | IC50 [6] | IC50 [7] | IC50 [8]

CCn1cc(C(=O)O)c(=O)c2cc(F)c(N3CCN(C)CC3)cc21 [PEFLOXACIN]
Not Active: IC50 [1] | IC50 [2] | IC50 [3] | IC50 [4] | Ki [4] | IC50 [5] | IC50 [6] | IC50 [7] | IC50 [8]

CCCCOc1ccc(OCCCN2CCOCC2)cc1 [PRAMOXINE]
Not Active: IC50 [1] | IC50 [2] | IC50 [3] | IC50 [4] | Ki [4] | IC50 [5] | IC50 [6] | IC50 [7] | IC50 [8]

NC(=O)c1cnccn1 [PYRAZINAMIDE]
Not Active: IC50 [1] | IC50 [2] | IC50 [3] | IC50 [4] | Ki [4] | IC50 [5] | IC50 [6] | IC50 [7] | IC50 [8]

OC(CCN1CCCCC1)(c1ccccc1)C1CCCCC1 (stereo not drawn) [TRIHEXYPHENIDYL]
Not Active: IC50 [1] | IC50 [2] | IC50 [3] | IC50 [4] | Ki [4] | IC50 [5] | IC50 [6] | IC50 [7] | IC50 [8]
